Literature values in US20240264159A1 (priority 2021, published 2024).

Tested on: SARS-CoV-2
Settings: Bewley et al., 2021; cited from earlier work

heparin
inhibition of SARS-CoV-2 entry into cells: inhibit SARS-CoV-2 entry into cells
